Results from ChEMBL document CHEMBL4483862, “Open-source discovery of chemical leads for next-generation chemoprotective antimalarials” (2018).

System: Plasmodium berghei
Assay: Luciferase/luciferin-expressing antifolate-resistant parasites were used to infect a culture of HepG2 cells that were pre-incubated with compounds. Infected hepatocytes emit light due to the luciferase reaction. Assay results are presented as the percent inhibition of light emission compared to control. […]
Assay type: functional
Conditions: sporozoite; for IC90: read-out: LUCIFERASE INFECTION ASSAY - IC90

Compound `O=C(Nc1ccc(Cl)c(Cl)c1)Nc1ccc(Cl)c(Cl)c1` has an IC50 (HEPG2TOX_HILL_SLOPE 2.86, HEPG2TOX_R_SQUARED 0.877, PBLUC_HILL_SLOPE 1.38, PBLUC_R_SQUARED 0.733, read-out: LUCIFERASE INFECTION ASSAY - IC50) of 0.275 µM and an IC90 of 1.35 µM.

`COc1ccc(S(=O)(=O)NN(C)c2nc(C(F)(F)F)nc3ccccc23)cc1` was tested, and the IC50 (HEPG2TOX_HILL_SLOPE 2.85, HEPG2TOX_R_SQUARED 0.931, PBLUC_HILL_SLOPE 2.16, PBLUC_R_SQUARED 0.738, read-out: LUCIFERASE INFECTION ASSAY - IC50) was 2.59 µM and the IC90 was 7.15 µM.

`COc1cc(-c2cn3c(-c4ccc5ncccc5c4)cnc3cn2)ccc1O` showed an IC50 (HEPG2TOX_HILL_SLOPE 2.88, HEPG2TOX_R_SQUARED 0.967, PBLUC_HILL_SLOPE 7.35, PBLUC_R_SQUARED 0.638, read-out: LUCIFERASE INFECTION ASSAY - IC50) of 3.39 µM and an IC90 of 4.57 µM.

`Cc1ccsc1/C=N/Nc1nc2ccccc2nc1C(F)(F)F` was tested, and the IC50 (HEPG2TOX_HILL_SLOPE 2.86, HEPG2TOX_R_SQUARED 0.79, PBLUC_HILL_SLOPE 19.7, PBLUC_R_SQUARED 0.0461, read-out: LUCIFERASE INFECTION ASSAY - IC50) was 8.5 µM and the IC90 was 9.51 µM.

Work on `Cc1cnc(NC(=O)c2ccccc2NS(=O)(=O)c2cccc(C(F)(F)F)c2)s1` yielded an IC50 (HEPG2TOX_HILL_SLOPE 2.85, HEPG2TOX_R_SQUARED 0.86, read-out: LUCIFERASE INFECTION ASSAY - IC50) greater than 10 µM and an IC90 greater than 10 µM.

With `Cc1nn(-c2ccccc2)c(C)c1C(=O)Nc1nc2c(s1)CCCC2` the IC50 (HEPG2TOX_HILL_SLOPE 2.86, HEPG2TOX_R_SQUARED 0.355, PBLUC_HILL_SLOPE 1.92, 0.823, PBLUC_R_SQUARED 0.870, 0.934, read-out: LUCIFERASE INFECTION ASSAY - IC50) was 0.574 µM and the IC90 was 4.22 µM.

`CCCCNC(=O)c1c(NC(=O)c2cc(F)ccc2F)nc2ccccn12` gave an IC50 (HEPG2TOX_HILL_SLOPE 2.83, HEPG2TOX_R_SQUARED 0.745, PBLUC_HILL_SLOPE 13.2, PBLUC_R_SQUARED 0.5, read-out: LUCIFERASE INFECTION ASSAY - IC50) of 3.03 µM and an IC90 of 3.57 µM.

With `CCN(CC)c1ccc(NC(=O)c2cccc(F)c2)cc1` the IC50 (HEPG2TOX_HILL_SLOPE 2.87, HEPG2TOX_R_SQUARED 0.815, PBLUC_HILL_SLOPE 5.54, PBLUC_R_SQUARED 0.522, read-out: LUCIFERASE INFECTION ASSAY - IC50) was 4.33 µM and the IC90 was 6.44 µM.

For `CC(C)Cc1ccc(CN2CCC3(CC2)C(=O)N(CC(C)C)C(=O)N3C)cc1`, the IC50 (HEPG2TOX_HILL_SLOPE 2.88, HEPG2TOX_R_SQUARED 0.972, PBLUC_HILL_SLOPE 3.02, PBLUC_R_SQUARED 0.492, read-out: LUCIFERASE INFECTION ASSAY - IC50) was 5.03 µM and the IC90 was greater than 8.56 µM.

Compound `COc1ccc(-c2nc(C(=O)N3CCc4ccccc43)cs2)cc1OC` has an IC50 (HEPG2TOX_HILL_SLOPE 2.84, HEPG2TOX_R_SQUARED 0.79, PBLUC_HILL_SLOPE 2.13, PBLUC_R_SQUARED 0.686, read-out: LUCIFERASE INFECTION ASSAY - IC50) of 0.875 µM and an IC90 of 2.46 µM.

Work on `N#CC(C#N)=NNc1cc(Cl)cc(Cl)c1` yielded an IC50 (HEPG2TOX_HILL_SLOPE 2.85, HEPG2TOX_R_SQUARED 0.913, PBLUC_HILL_SLOPE 19.7, PBLUC_R_SQUARED 0.581, read-out: LUCIFERASE INFECTION ASSAY - IC50) of 0.505 µM and an IC90 of 0.565 µM.

`c1ccc(C(Nc2ncnc3sccc23)c2cccs2)cc1` (configuration not stated) gave an IC50 (HEPG2TOX_HILL_SLOPE 2.82, HEPG2TOX_R_SQUARED 0.952, PBLUC_HILL_SLOPE 3.44, PBLUC_R_SQUARED 0.151, read-out: LUCIFERASE INFECTION ASSAY - IC50) of 7.24 µM and an IC90 greater than 10 µM.

In the case of `COc1ccc(F)cc1CN(Cc1ccc(C(=O)NC2CC2)cc1)Cc1ccco1`, the IC50 (HEPG2TOX_HILL_SLOPE 2.87, HEPG2TOX_R_SQUARED 0.785, PBLUC_HILL_SLOPE 1.38, 16.4, PBLUC_R_SQUARED 0.804, 0.717, read-out: LUCIFERASE INFECTION ASSAY - IC50) is reported as 0.286 µM and the IC90 is reported as 0.722 µM.

Work on `COc1ccc(Sc2nc(N(C)C)ncc2OC)cc1` yielded an IC50 (HEPG2TOX_HILL_SLOPE 2.8, HEPG2TOX_R_SQUARED 0.967, PBLUC_HILL_SLOPE 2.43, PBLUC_R_SQUARED 0.609, read-out: LUCIFERASE INFECTION ASSAY - IC50) of 6.22 µM and an IC90 greater than 11.3 µM.

`CCCCNC(=O)c1c(NC(=O)c2cccc(OC)c2)nc2ccccn12` was tested, and the IC50 (HEPG2TOX_HILL_SLOPE 2.8, HEPG2TOX_R_SQUARED 0.959, PBLUC_HILL_SLOPE 5.29, PBLUC_R_SQUARED 0.462, read-out: LUCIFERASE INFECTION ASSAY - IC50) was 3.27 µM and the IC90 was 4.95 µM.

With `O=C(c1cnc(Nc2cccc(Oc3ccccc3)c2)[nH]1)c1ccccc1F` the IC50 (HEPG2TOX_HILL_SLOPE 2.89, HEPG2TOX_R_SQUARED 0.712, PBLUC_HILL_SLOPE 12, PBLUC_R_SQUARED 0.715, read-out: LUCIFERASE INFECTION ASSAY - IC50) was 2.8 µM and the IC90 was 3.36 µM.

`O=C(NNC(=O)c1cnn(-c2ccccc2)c1C(F)(F)F)c1ccc2ccccc2n1` was tested, and the IC50 (HEPG2TOX_HILL_SLOPE 2.84, HEPG2TOX_R_SQUARED 0.957, PBLUC_HILL_SLOPE 16.4, PBLUC_R_SQUARED 0.688, read-out: LUCIFERASE INFECTION ASSAY - IC50) was 3.28 µM and the IC90 was 3.75 µM.

Work on `C[C@]12CCC3C(CC[C@]4(O)C[C@@H](O)CC[C@]34/C=N/O)[C@@]1(O)CC[C@@H]2C1=CC(=O)OC1` (some centres not stated) yielded an IC50 (HEPG2TOX_HILL_SLOPE 2.86, HEPG2TOX_R_SQUARED 0.935, PBLUC_HILL_SLOPE 2.2, PBLUC_R_SQUARED 0.866, read-out: LUCIFERASE INFECTION ASSAY - IC50) of 0.0609 µM and an IC90 of 0.165 µM.

Compound `COc1ccc(-c2csc3ncnc(NCC(=O)NC(C)C)c23)cc1` has an IC50 (HEPG2TOX_HILL_SLOPE 2.82, HEPG2TOX_R_SQUARED 0.984, PBLUC_HILL_SLOPE 1.1, PBLUC_R_SQUARED 0.732, read-out: LUCIFERASE INFECTION ASSAY - IC50) of 2.59 µM and an IC90 greater than 10 µM.

For `N#Cc1ccc(NCCNc2nc3ccccc3s2)nc1`, the IC50 (HEPG2TOX_HILL_SLOPE 2.81, HEPG2TOX_R_SQUARED 0.729, PBLUC_HILL_SLOPE 4.52, PBLUC_R_SQUARED 0.618, read-out: LUCIFERASE INFECTION ASSAY - IC50) was 2.66 µM and the IC90 was 4.32 µM.

Work on `COc1cc(Nc2ncc3c(n2)CCN(C(=O)Nc2ccc(OC(F)(F)F)cc2)C3)cc(OC)c1OC` yielded an IC50 (HEPG2TOX_HILL_SLOPE 2.89, HEPG2TOX_R_SQUARED 0.596, read-out: LUCIFERASE INFECTION ASSAY - IC50) greater than 6.35 µM and an IC90 greater than 6.35 µM.

`c1ccc(CNc2nc3cnc(-c4ccc5ccccc5c4)cc3[nH]2)cc1` showed an IC50 (HEPG2TOX_HILL_SLOPE 2.88, HEPG2TOX_R_SQUARED 0.737, PBLUC_HILL_SLOPE 2.3, PBLUC_R_SQUARED 0.668, read-out: LUCIFERASE INFECTION ASSAY - IC50) of 4.89 µM and an IC90 greater than 10 µM.

For `COc1ccc(/C=C2\N=C(SCc3cn4ccsc4n3)N(c3cc(C)cc(C)c3)C2=O)cc1`, the IC50 (HEPG2TOX_HILL_SLOPE 2.87, HEPG2TOX_R_SQUARED 0.677, PBLUC_HILL_SLOPE 15.6, PBLUC_R_SQUARED 0.508, read-out: LUCIFERASE INFECTION ASSAY - IC50) was 9.65 µM and the IC90 was greater than 10 µM.

Compound `CC(C)(C)c1ccc(-c2cc(NC(=O)c3ccc(Cl)cc3Cl)[nH]n2)cc1` has an IC50 (HEPG2TOX_HILL_SLOPE 2.82, HEPG2TOX_R_SQUARED 0.976, PBLUC_HILL_SLOPE 3.98, PBLUC_R_SQUARED 0.745, read-out: LUCIFERASE INFECTION ASSAY - IC50) of 1.77 µM and an IC90 of 3.08 µM.

`CCC(C)NC(=O)c1c(NC(=O)c2ccccc2Cl)nc2ccc(C)cn12` (configuration not stated) was tested, and the IC50 (HEPG2TOX_HILL_SLOPE 2.82, HEPG2TOX_R_SQUARED 0.923, PBLUC_HILL_SLOPE 8.99, PBLUC_R_SQUARED 0.855, read-out: LUCIFERASE INFECTION ASSAY - IC50) was 2.96 µM and the IC90 was 3.78 µM.

In the case of `COc1ccc(S(=O)(=O)N2CCSc3cc(Cl)ccc32)cc1`, the IC50 (HEPG2TOX_HILL_SLOPE 2.85, HEPG2TOX_R_SQUARED 0.925, PBLUC_HILL_SLOPE 20.1, PBLUC_R_SQUARED 0.623, read-out: LUCIFERASE INFECTION ASSAY - IC50) is reported as 2.85 µM and the IC90 is reported as 3.18 µM.

In the case of `Cc1c(C#N)c(Sc2ccccc2NC(=O)c2ccco2)nc2ccccc12`, the IC50 (HEPG2TOX_HILL_SLOPE 2.88, HEPG2TOX_R_SQUARED 0.661, PBLUC_HILL_SLOPE 2.8, PBLUC_R_SQUARED 0.14, read-out: LUCIFERASE INFECTION ASSAY - IC50) is reported as 3.82 µM and the IC90 is reported as 8.38 µM.

For `COC(=O)c1c(OC)ccc(NC(=O)NC(=O)c2c(OC)c(Cl)cc(Cl)c2OC)c1OC`, the IC50 (HEPG2TOX_HILL_SLOPE 2.83, HEPG2TOX_R_SQUARED 0.683, PBLUC_HILL_SLOPE 11.5, PBLUC_R_SQUARED 0.299, read-out: LUCIFERASE INFECTION ASSAY - IC50) was 2.18 µM and the IC90 was 2.63 µM.

`COc1ccc(C)cc1N1CC(C(=O)Nc2nc3ccccc3[nH]2)CC1=O` (configuration not stated) gave an IC50 (HEPG2TOX_HILL_SLOPE 2.88, HEPG2TOX_R_SQUARED 0.929, PBLUC_HILL_SLOPE 3.77, PBLUC_R_SQUARED 0.362, read-out: LUCIFERASE INFECTION ASSAY - IC50) of 2.38 µM and an IC90 of 4.27 µM.

`CN(C)c1ccc(C(=O)/C=C/c2ccccc2C(F)(F)F)cc1` gave an IC50 (HEPG2TOX_HILL_SLOPE 2.82, HEPG2TOX_R_SQUARED 0.851, PBLUC_HILL_SLOPE 15.9, PBLUC_R_SQUARED 0.328, read-out: LUCIFERASE INFECTION ASSAY - IC50) of 3.43 µM and an IC90 of 3.94 µM.

`Cc1cccc(C(=O)Nc2ccc(N3CCc4sccc4C3)nc2)c1[N+](=O)[O-]` showed an IC50 (HEPG2TOX_HILL_SLOPE 2.87, HEPG2TOX_R_SQUARED 0.919, PBLUC_HILL_SLOPE 1.54, PBLUC_R_SQUARED 0.645, read-out: LUCIFERASE INFECTION ASSAY - IC50) of 2.52 µM and an IC90 greater than 10 µM.
